Among the data in patent publication EP4737451A1 (Dong Wha Pharm. Co., Ltd., priority 2023, dated 2025) are inhibition and IC50 values, retold here.

pIC50: −log10 of the molar value.

The target in one assay is T1, IRAK1 enzyme (Homo sapiens, UniProt P51617).
T1 construct: purchased Promega VA7477
Briefly: IRAK1 enzyme activity inhibition (ADP-Glo, Promega kit). Particulars: for inhibition at 0.1 µM: test compound 0.1 uM; for inhibition at 1 µM: test compound 1 uM. The format is biochemical. As to the method:
An experiment on IRAK1 enzyme activity inhibition of the compound of the present invention was conducted.
An IRAK1 enzyme kit (purchased from Promega, product number: VA7477) was used to dilute a mixed solution between 0.1 µg/µL of protein kinase B (AKT), which is an enzyme-reactive substrate, and 1.25 mM of ATP with a reaction buffer (40 mM Tris-HCl, pH 7.5; 20 mM MgCl2; 0.1 mg/mL BSA; 50 µM DTT) according to the instructions, so as to dispense 2 µL in a 384-well white plate, and then to add 1 µL of a test compound, which was gradient diluted starting from 1 mM, to a 384-well white plate. After that, an IRAK1 enzyme was diluted with a reaction buffer to a final concentration of 5 ng/µL, then 2 µL/well was dispensed into a 384-well white plate and reacted at 37°C for 60 minutes. After completion of a reaction, an ADP-GloTM enzyme test kit (purchased from Promega, product number: V9102) was used to add 5 µL of ADP-Glo reaction reagent and cause a reaction at 37°C for 40 minutes, and then 10 µL of enzyme chromogenic reagent was added again to measure a luminescence signal using equipment for measuring absorbance (THECAN, Microplate Reader). An activity inhibition rate was calculated from a measured value, and a 50% inhibition concentration (IC50 value) was analyzed through a non-linear regression analysis based on the % inhibition for each concentration of the test compound, and is shown in Table 3.

The target of a further assay is T2, IRAK4 enzyme (Homo sapiens, UniProt Q9NWZ3).
T2 construct: purchased Promega V2621
T2 sequence (Q9NWZ3 1-460): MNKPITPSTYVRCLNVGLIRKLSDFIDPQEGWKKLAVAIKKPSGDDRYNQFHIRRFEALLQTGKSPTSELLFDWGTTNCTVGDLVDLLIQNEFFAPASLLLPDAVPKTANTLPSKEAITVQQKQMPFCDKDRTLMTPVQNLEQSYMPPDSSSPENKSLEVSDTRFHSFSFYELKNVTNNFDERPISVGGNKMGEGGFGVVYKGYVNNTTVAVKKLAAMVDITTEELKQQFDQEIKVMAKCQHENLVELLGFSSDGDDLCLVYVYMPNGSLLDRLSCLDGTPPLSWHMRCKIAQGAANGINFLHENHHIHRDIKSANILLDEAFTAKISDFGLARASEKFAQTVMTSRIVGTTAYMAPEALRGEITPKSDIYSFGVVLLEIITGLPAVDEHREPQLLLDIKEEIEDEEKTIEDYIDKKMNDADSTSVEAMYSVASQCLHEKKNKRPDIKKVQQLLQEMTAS
In words: IRAK4 enzyme activity inhibition (ADP-Glo, Promega kit). The format is biochemical. Particulars: for inhibition at 0.1 µM: test compound 0.1 uM; for inhibition at 1 µM: test compound 1 uM. Here is the method: An experiment on IRAK4 enzyme activity inhibition of the compound of the present invention was conducted.
An IRAK4 enzyme kit (purchased from Promega, product number: V2621) was used to dilute a mixed solution between 0.1 µg/µL of myelin basic protein (MBP), which is an enzyme-reactive substrate, and 1.25 mM of ATP with a reaction buffer (40 mM Tris-HCl, pH 7.5; 20 mM MgCl2; 0.1 mg/mL BSA; 50 µM DTT) according to the instructions, so as to dispense 2 µL in a 384-well white plate, and then to add 1 µL of a test compound, which was gradient diluted starting from 1 mM, to a 384-well plate. After that, an IRAK4 enzyme was diluted with a reaction buffer to a final concentration of 5 ng/µL, then 2 µL/well was dispensed into a 384-well white plate and reacted at 37°C for 60 minutes. After completion of a reaction, an ADP-GloTM enzyme test kit (purchased from Promega, product number: V9102) was used to add 5 µL of ADP-Glo reaction reagent and cause a reaction at 37°C for 40 minutes, and then 10 µL of enzyme chromogenic reagent was added again to measure a luminescence signal using equipment for measuring absorbance (THECAN, Microplate Reader). An activity inhibition rate was calculated from a measured value, and a 50% inhibition concentration (IC50 value) was analyzed through a non-linear regression analysis based on the % inhibition for each concentration of the test compound, and is shown in Table 2.

T1 sequence (P51617 whole entry): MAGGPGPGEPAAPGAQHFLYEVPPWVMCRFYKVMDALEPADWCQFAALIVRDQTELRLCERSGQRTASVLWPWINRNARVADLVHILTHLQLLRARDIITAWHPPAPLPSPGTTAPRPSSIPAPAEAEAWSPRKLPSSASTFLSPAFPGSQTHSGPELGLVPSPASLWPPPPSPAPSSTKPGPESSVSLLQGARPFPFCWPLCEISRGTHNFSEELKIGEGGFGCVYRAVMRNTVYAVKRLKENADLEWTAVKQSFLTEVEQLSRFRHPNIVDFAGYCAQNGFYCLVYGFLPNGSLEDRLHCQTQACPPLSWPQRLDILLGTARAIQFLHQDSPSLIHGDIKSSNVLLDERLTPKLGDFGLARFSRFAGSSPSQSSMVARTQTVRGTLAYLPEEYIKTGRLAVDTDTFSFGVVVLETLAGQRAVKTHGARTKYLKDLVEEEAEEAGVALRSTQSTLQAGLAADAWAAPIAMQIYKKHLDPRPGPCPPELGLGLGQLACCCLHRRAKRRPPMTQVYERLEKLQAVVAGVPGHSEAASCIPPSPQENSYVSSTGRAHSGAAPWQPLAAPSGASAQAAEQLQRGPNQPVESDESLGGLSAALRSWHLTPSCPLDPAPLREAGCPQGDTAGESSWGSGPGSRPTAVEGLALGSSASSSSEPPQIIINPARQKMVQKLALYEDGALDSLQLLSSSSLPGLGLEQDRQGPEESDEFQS

Take `CN(C)CCn1cc2cc(NC(=O)c3cccc(C(N)=O)c3)c(-c3ccsc3)cc2n1` [Example 1, N-(2-(2-(dimethylamino)ethyl)-6-(thiophen-3-yl)-2H-indazol-5-yl)isophthalamide]: the inhibition at 0.1 µM worked out at 42.4% against IRAK1 enzyme and 19.1% on IRAK4 enzyme.

As to `CC(C)(O)CCn1cc2cc(NC(=O)c3cccc([N+](=O)[O-])c3)c(-c3ccoc3)cc2n1` [Example 4, N-(6-(furan-3-yl)-2-(3-hydroxy-3-methylbutyl)-2H-indazol-5-yl)-3-nitrobenzamide], at IRAK4 enzyme, testing at 0.1 µM gave an inhibition of 42.1% and 1 µM produced 67.4% inhibition.

On IRAK4 enzyme, `CC(C)(O)CCn1cc2cc(NC(=O)c3cncc([N+](=O)[O-])c3)c(-c3ccoc3)cc2n1` [Example 5, N-(6-(furan-3-yl)-2-(3-hydroxy-3-methylbutyl)-2H-indazol-5-yl)-5-nitronicotinamide] registered an inhibition at 0.1 µM of 27.9% and an inhibition at 1 µM of 35.4%.

On IRAK4 enzyme, `CC(C)(O)CCn1cc2cc(NC(=O)c3cccc(C(N)=O)c3)c(-c3ccoc3)cc2n1` [Example 6, N-(6-(furan-3-yl)-2-(3-hydroxy-3-methylbutyl)-2H-indazol-5-yl)isophthalamide] came in with an inhibition at 0.1 µM of 35.5% and an inhibition at 1 µM of 67%.

In the case of `CC(C)(O)CCn1cc2cc(NC(=O)c3cncc([N+](=O)[O-])c3)c(-c3ccsc3)cc2n1` [Example 7, N-(2-(3-hydroxy-3-methylbutyl)-6-(thiophen-3-yl)-2H-indazol-5-yl)-5-nitronicotinamide], at IRAK4 enzyme, the inhibition at 0.1 µM was 28.1% and the inhibition at 1 µM is 57.7%.

On IRAK4 enzyme, `CC(C)(O)CCn1cc2cc(NC(=O)c3cccc([N+](=O)[O-])c3)c(-c3ccsc3)cc2n1` [Example 8, N-(2-(3-hydroxy-3-methylbutyl)-6-(thiophen-3-yl)-2H-indazol-5-yl)-3-nitrobenzamide] yielded an inhibition at 0.1 µM of 21.7% and an inhibition at 1 µM of 50.3%.

Turning to `O=C(Nc1cc2cn(CCN3CCCCC3)nc2cc1N1CCOCC1)c1cccc([N+](=O)[O-])c1` [Example 9, N-(6-morpholino-2-(2-(piperidin-1-yl)ethyl)-2H-indazol-5-yl)-3-nitrobenzamide], at IRAK4 enzyme, testing at 0.1 µM gave an inhibition of 56.9% and at 1 µM the inhibition was 79.5%.

On to `CN(C)CCn1cc2cc(NC(=O)c3cccc([N+](=O)[O-])c3)c(N3CCOCC3)cc2n1` [Example 10, N-(2-(2-(dimethylamino)ethyl)-6-morpholino-2H-indazol-5-yl)-3-nitrobenzamide], for which, on IRAK4 enzyme, the negative-log IC50 (pIC50) is 7.00, 0.1 µM produced 49.5% inhibition and the inhibition at 1 µM was 83.4%.

Regarding `COCCn1cc2cc(NC(=O)c3cccc([N+](=O)[O-])c3)c(N3CCOCC3)cc2n1` [Example 11, N-(2-(2-methoxyethyl)-6-morpholino-2H-indazol-5-yl)-3-nitrobenzamide], on IRAK4 enzyme, the inhibition at 0.1 µM is 40.4% and at 1 µM the inhibition was 56.9%.

On IRAK4 enzyme, `CN(C)CCn1cc2cc(NC(=O)c3cccc(-c4nccs4)c3)c(-c3ccsc3)cc2n1` [Example 12, N-(2-(2-(dimethylamino)ethyl)-6-(thiophen-3-yl)-2H-indazol-5-yl)-3-(thiazol-2-yl)benzamide] registered an inhibition at 0.1 µM of 31.5%.

On IRAK1 enzyme, `CS(=O)(=O)CCn1cc2cc(NC(=O)c3cccc([N+](=O)[O-])c3)c(N3CCOCC3)cc2n1` [Example 13, N-(2-(2-(methylsulfonyl)ethyl)-6-morpholino-2H-indazol-5-yl)-3-nitrobenzamide] registered an inhibition at 0.1 µM of 1.3% and an inhibition at 1 µM of 0%. For the same molecule, at IRAK4 enzyme, the inhibition at 0.1 µM was found to be 18.6% and testing at 1 µM gave an inhibition of 19.2%.

With `CS(=O)(=O)CCn1cc2cc(NC(=O)c3cccc(S(=O)(=O)N4CCOCC4)c3)c(N3CCOCC3)cc2n1` [Example 14, N-(2-(2-(methylsulfonyl)ethyl)-6-morpholino-2H-indazol-5-yl)-3-(morpholinosulfonyl)benzamide], 1 µM produced 0% inhibition against IRAK1 enzyme. For the same molecule, at IRAK4 enzyme, the inhibition at 0.1 µM came to 21.1% and the inhibition at 1 µM was 35.6%.

For `CC(C)(O)CCn1cc2cc(NC(=O)c3cccc([N+](=O)[O-])c3)cc(-c3ccoc3)c2n1` [Example 16, N-(7-(furan-3-yl)-2-(3-hydroxy-3-methylbutyl)-2H-indazol-5-yl)-3-nitrobenzamide], the inhibition at 1 µM against IRAK1 enzyme was determined as 17.2%; on IRAK4 enzyme, 71%. For the same molecule, 0.1 µM produced 48.8% inhibition on IRAK4 enzyme.

Turning to `NC(=O)COCCn1cc2cc(NC(=O)c3cccc(S(N)(=O)=O)c3)c(N3CCOCC3)cc2n1` [Example 17, N-(2-(2-(2-amino-2-oxoethoxy)ethyl)-6-morpholino-2H-indazol-5-yl)-3-sulfamoylbenzamide], on IRAK1 enzyme, the inhibition at 0.1 µM was 33.1% and testing at 1 µM gave an inhibition of 63.4%. Further, on IRAK4 enzyme, the pIC50 was 6.48 and testing at 0.1 µM gave an inhibition of 76.7%.

Regarding `NC(=O)COCCn1cc2cc(NC(=O)c3cccc(C(N)=O)c3)c(N3CCOCC3)cc2n1` [Example 18, N-(2-(2-(2-amino-2-oxoethoxy)ethyl)-6-morpholino-2H-indazol-5-yl)isophthalamide], the inhibition at 1 µM was 23.2% at IRAK1 enzyme and 65.6% against IRAK4 enzyme. Moreover, the inhibition at 0.1 µM at IRAK4 enzyme is 54.8%.

`O=C(Nc1cc2cn(CCN3CCOCC3)nc2cc1N1CCOCC1)c1cccc([N+](=O)[O-])c1` [Example 19, N-(6-morpholino-2-(2-morpholinoethyl)-2H-indazol-5-yl)-3-nitrobenzamide] had an inhibition at 1 µM against IRAK1 enzyme of 38.7%. Moreover, on IRAK4 enzyme, the pIC50 is 7.50, testing at 0.1 µM gave an inhibition of 84.7% and 1 µM produced 90.1% inhibition.

At IRAK1 enzyme, `CC(C)(O)CCn1cc2cc(NC(=O)c3cccc(-c4cn[nH]c4)n3)c(N3CCOCC3)cc2n1` [Example 20, N-(2-(3-hydroxy-3-methylbutyl)-6-morpholino-2H-indazol-5-yl)-6-(1H-pyrazol-4-yl)picolinamide] showed an inhibition at 0.1 µM of 16.5% and an inhibition at 1 µM of 57%. At IRAK4 enzyme, this molecule had a negative-log IC50 (pIC50) of 7.81 and an inhibition at 0.1 µM of 89.6%.

Take `CC(C)(O)CCn1cc2cc(NC(=O)c3cccc([N+](=O)[O-])c3F)c(N3CCOCC3)cc2n1` [Example 22, 2-fluoro-N-(2-(3-hydroxy-3-methylbutyl)-6-morpholino-2H-indazol-5-yl)-3-nitrobenzamide]: on IRAK1 enzyme, the inhibition at 0.1 µM amounted to 30.3% and the inhibition at 1 µM was 47.2%. On IRAK4 enzyme, this molecule gave a pIC50 of 7.39 and an inhibition at 0.1 µM of 88.3%.

On IRAK1 enzyme, `CC(C)(O)CCn1cc2cc(NC(=O)c3cc(F)cc([N+](=O)[O-])c3)c(N3CCOCC3)cc2n1` [Example 24, 3-fluoro-N-(2-(3-hydroxy-3-methylbutyl)-6-morpholino-2H-indazol-5-yl)-5-nitrobenzamide] had an inhibition at 0.1 µM of 26.9% and an inhibition at 1 µM of 45.5%. On IRAK4 enzyme, this molecule showed a negative-log IC50 (pIC50) of 7.88 and an inhibition at 0.1 µM of 83.9%.

On to `CC(C)(O)CCn1cc2cc(NC(=O)c3cccc(S(N)(=O)=O)c3)c(-c3ccc(C(=O)NCC(F)(F)F)cc3)cc2n1` [Example 42, N-(2-(3-hydroxy-3-methylbutyl)-6-(4-((2,2,2-trifluoroethyl)carbamoyl)phenyl)-2H-indazol-5-yl)-3-sulfamoylbenzamide], for which at 0.1 µM the inhibition at IRAK4 enzyme was 65.1%.

As to `CONC(=O)c1ccc(-c2cc3nn(CCC(C)(C)O)cc3cc2NC(=O)c2cccc(S(N)(=O)=O)c2)cc1` [Example 44, N-(2-(3-hydroxy-3-methylbutyl)-6-(4-(methoxycarbamoyl)phenyl)-2H-indazol-5-yl)-3-sulfamoylbenzamide], 0.1 µM produced 61.9% inhibition against IRAK4 enzyme.
